Results reported in patent US12171743B2, “Forms of aticaprant” (Janssen Pharmaceuticals, Inc., priority 2022, dated 2024).
“Also recorded” adds a separate entry of the source.

Tests used:
Type in all cases: physicochemical
[1] = Competitive slurries of Forms I, II and III (thermodynamic stability)
Method: Competitive slurrying experiments were carried out with Form I, Form II and Form III to determine the relative order of stability. Slurrying experiments were carried out in six different solvent systems 5 and 50° C.
Saturated solutions of Form III were prepared in different solvent systems. See, Table 32. Each vial was filled with the relevant solvent (1.5 mL in each) and placed to equilibrate at the relevant temperature. After this time, small spatulas of the solid were added until the solid no longer dissolved. Samples were left to stir at 5° C. and 50° C. for ca. 2 weeks or longer as noted.
Form III (180 mg) and Form II (180 mg) were combined into a 4 mL vial. The sample was placed on a turbula blender for 30 mins, after which a small sample was taken and analyzed by XRPD to confirm a mixture. 10 mg of this mixture was weighed and a mixture of Form I and Form II was instead used as seeds in the competitive slurries. To each vial was added the mixture of Forms I and II (7 mg). See, Table 33.

[2] = Gravimetric vapor sorption (GVS)
Method: Sorption isotherms were obtained using a SMS DVS Intrinsic moisture sorption analyzer, controlled by DVS Intrinsic Control software. The sample temperature was maintained at 25° C. by the instrument controls. The humidity was controlled by mixing streams of dry and wet nitrogen, with a total flow rate of 200 mL/min. The relative humidity was measured by a calibrated Rotronic probe (dynamic range of 1.0-100% RH), located near the sample. The weight change, (mass relaxation) of the sample as a function of % RH was constantly monitored by a microbalance (accuracy ±0.005 mg).
Typically, 5-30 mg of sample was placed in a tared mesh stainless steel basket under ambient conditions. The sample was loaded and unloaded at 40% RH and 25° C. (typical room conditions). A moisture sorption isotherm was performed as outlined below (2 scans per complete cycle). The standard isotherm was performed at 25° C. at 10% RH intervals over a 0-90% RH range. Typically, a double cycle (4 scans) was carried out. Data analysis was carried out within Microsoft Excel using the DVS Analysis Suite. See, Table 15.
The sample was recovered after completion of the isotherm and re-analyzed by XRPD.

[3] = Solubility observation of Form III in solvents
Method: Form III of aticaprant (20 mg) was weighed into 3 HPLC vials. Each vial was treated with 10 vol (250 μL) of the relevant solvent at 25° C. and shaken. The sample in t-BuOH was placed at 90° C. for a few seconds, where a solution was obtained. The solutions were filtered using a 0.45 μm PTFE membrane Acrodisc filter, before being flash frozen in an acetone/dry ice bath for 5 minutes. The samples were then freeze-dried overnight. The resulting solids were characterized by XRPD.
[…] Form III of aticaprant (20 mg) was dispensed into amber HPLC vials (×49) with a magnetic stirrer bar. Each vial was treated with the relevant solvent (5 vol) at RT and stirred at 300 rpm for 10 mins. If suspensions were still observed, increasing volumes of the solvent were added until the material fully dissolved or until a maximum of 80 vol had been used (Table 20). All samples were heated to 50° C. and held for 1 hour. The samples were then cooled to 5° C. at a rate of 0.1° C./min and left to stir overnight. Any suspensions remaining at this point were subjected to maturation at RT/50° C. for 2 weeks.

[4] = Static storage at elevated temperature and humidity, form by XRPD; conditions: for form (XRPD) after static storage: 1 week; for form after static storage: (10 days), Form II prepared at 1 g scale
Method: After static storage of amorphous aticaprant at 40° C./75% RH for 1 week, Form II was obtained.
Fresh amorphous aticaprant was prepared for static storage at 40° C./75% RH for 1 week. Both solvents produced amorphous aticaprant. Tg was determined to be 45.5° C. by mDSC. See, Table 19 for the characterization of amorphous aticaprant.
Form I was obtained in the screens from ethyl acetate and MEK (both through solvent evaporation). It also was obtained from addition of heptane antisolvent to solutions in ethyl acetate and diethyl ether. The sample from the solubility assessment in ethyl acetate was isolated and characterized by XRPD, ^1H NMR, and DSC (FIG. 7), and static storage at elevated temperature and humidity.

Cc1cc(C)cc(C2CCCN2Cc2ccc(Oc3ccc(C(N)=O)cc3F)cc2)c1 (centres unmarked) [Form III]
relative stability among Forms I, II and III (in words) [1]: most stable form | GVS hysteresis [2]: No hysteresis observed | XRPD / form after GVS [2]: XRPD unchanged after GVS | GVS max uptake ([2]; at 90% RH, 25° C.): 0.4% max uptake at 90% RH | solubility observation ([3]; 70% THF/H2O, 250 μL/10 vol, RT): Soluble, biphasic | solubility observation ([3]; t-BuOH at 90° C.): (soluble at 90° C.) | solubility observation ([3]; t-BuOH, 250 μL/10 vol, 25° C.): Insoluble

Cc1cc(C)cc(C2CCCN2Cc2ccc(Oc3ccc(C(N)=O)cc3F)cc2)c1 (centres unmarked) [amorphous aticaprant]
form (XRPD) after static storage ([4]; 40° C./75% RH): Form II | form (XRPD) after static storage ([4]; 40° C./75% RH, listed as amorphous Aticaprant): Form II

Cc1cc(C)cc(C2CCCN2Cc2ccc(Oc3ccc(C(N)=O)cc3F)cc2)c1 (centres unmarked) [Form II]
stability after static storage at elevated temperature and humidity (in words) [4]: remained stable | form after static storage ([4]; 25° C./97% RH): Form II | form after static storage ([4]; 40° C./75% RH): Form II | GVS hysteresis [2]: slight hysteresis | XRPD / form after GVS [2]: XRPD post-GVS: Form II | hygroscopicity (in words) [2]: slightly hygroscopic; also recorded: Sample exhibits low hygroscopicity

Cc1cc(C)cc(C2CCCN2Cc2ccc(Oc3ccc(C(N)=O)cc3F)cc2)c1 (centres unmarked) [Form I]
stability after static storage at elevated temperature and humidity (in words) [4]: remains stable | form (XRPD) after static storage ([4]; 40° C./75% RH): Form I
